Laboratory results taken from ChEMBL document CHEMBL1157351, “Total synthesis and evaluation of C25-benzyloxyepothilone C for tubulin assembly and cytotoxicity against MCF-7 breast cancer cells” (Bioorg Med Chem Lett, 2008).
Activity calls are given as the source filed them. The calls are words filed in the database; no cut-off is given here.

Legend:
[1] = Inhibition of microtubule assembly at 100 uM
[2] = Inhibition of microtubule assembly
MCF7 [3] = assay: Ratio of ED50 for drug to ED50 for epothilone B against human MCF7 cells; type: functional
MCF7 [4] = assay: Cytotoxicity against human MCF7 cells; type: functional

In the case of C/C(=C\c1csc(C)n1)[C@@H]1C/C=C\CCC[C@H](COCc2ccccc2)C(O)[C@@H](C)C(=O)C(C)(C)C(O)CC(=O)O1 (some centres undefined), the Activity [1] is reported as “inactive”, the EC50 [2] is reported as 2500 nM and the “Ratio ED50” value (MCF7 [3]) is reported as 1050. The Activity (MCF7 [4]) was 2.1 µM.
